Experimental data as given in US11186807B2, “Reducing acetate ester production in yeast” (VIB VZW, priority 2017, dated 2021).

Test system: respiration in yeast (S288c and Hybrid A)
Test: Acetate ester production in mini-scale yeast fermentation with or without Antimycin A
Type: cell-based, Saccharomyces cerevisiae
Details: 3 mg/L Antimycin A in medium; genetic backgrounds S288c and Hybrid A; FIG. 7B
Source text: One of the main functions of the IMP complex is processing of subunits of the respiration chain. Given the surprising finding that genetic inference with the IMP complex reduces the production of acetate esters (see Example 5 and 8), we wondered whether respiration in general modulates acetate ester production. First, yeasts strains were developed in which five genes known to be crucial for respiration (i.e. CBS1, COR1, COX9, QCR9 and COX12) were separately deleted and subsequently were used in a fermentation experiment to determine aroma production. All selected genes function independently from the IMP complex. […] More precisely, an experiment was performed in which acetate ester production of a yeast strain was measured in medium with or without supplementation of 3 mg/L Antimycin A, a chemical compound blocking the respiratory pathway (Kim et al 1999 J Am Chem Soc 121:4902). […]
Phenotyping of the individual segregants for IA production was performed using an in situ approach, and was conducted as follows: the segregants were streaked from the −80° C. stock on YPGlu 2% agar plates for 48 h at 30° C. […] After 96 h, the fermentation was ended, excess CO2 was once again released by brief opening of the vials, and the vials were measured using gas chromatography (see further). […]

Substance: Antimycin A
- drop of isoamyl acetate production: about 50%
